Data from patent US20240199572A1, “COMPOUNDS, COMPOSITIONS, AND METHODS FOR TREATING TYPE 2 DIABETES AND DEMENTIA” (THE BOARD OF TRUSTEES OF THE UNIVERSITY OF ILLINOIS, priority 2021, published 2024).
Marks after values point to notes of the source that are not given here.

Test system: C57Bl/6 male mice on a high fat diet (HFD)
Assay: High-fat diet (HFD) mice treated with CL2-57
Format: in vivo, mouse
Method: High-Fat Diet and Drug Treatment. C57Bl/6 male mice (Jackson Laboratories) were placed on a high fat diet (HFD) (60% kcal from fat, Envigo) at 5 weeks. At 10 weeks, mice were acclimated to hydrogel replacement of drinking water (Clear H2O) for 3 days. Then, for six weeks while HFD continued, mice received 10 mg/kg CL2-57 oral gavage Mon/Wed/Fri (vehicle: 9.5% PEG-200, 5% DMSO, 0.1% polysorbate 80 in water) plus 10 mg/kg/day CL2-57 in continuous hydrogel, or vehicle control. Mice were weighed weekly. For fast-refed studies, mice fasted for 16 hours, then refed for 4 hours. Blood glucose was measured with handheld glucometer. Sample size, chosen based on previous experience with glucose tolerance test, was ten mice per treatment. Mice were assigned to treatment groups by cage randomization upon arrival from Jackson Laboratories. Mice were assigned a unique ear tag number to enable blinded tissue analysis and data collection. Treatment and in vivo experimentation were not blinded. No animals were excluded from analysis, and no control for confounders such as cage location or treatment order was performed.
Plasma/Liver Triglycerides. Blood was collected in EDTA-coated tubes (Becton Dickinson) and centrifuged (3500 rpm, 15 minutes) to separate plasma. Livers were flash frozen in liquid nitrogen, then stored at −80° C. until homogenization in isopropanol. Triglyceride levels were measured using reagents from Wako Diagnostics per manufacturer's protocol.
Glucose Tolerance Test (GTT). After 16-hour fast, animals were administered 1.5 g/kg body weight (bwt) glucose by intraperitoneal (i.p.) injection. Glucose in tail vein blood was measured at 0, 10, 20, 30, 45, 60, and 120 minutes using a ONETOUCH® […]® glucometer (LifeScan, Inc). Additional blood was collected at multiple points between 0-30 minutes in heparinized capillary tubes and centrifuged, with plasma insulin levels determined by ELISA (ALPCO).
Insulin Sensitivity Studies. Mice were injected with 1 U/kg bwt HUMALOG® insulin or vehicle (n=3 of each per treatment group) 15 minutes before sacrifice. Liver, subcutaneous fat, and gastrocnemius were collected and homogenized in lysis buffer (50 mM Tris-HCl (pH 7.4), 100 mM NaCl, 1 mM EDTA, 1 mM EGTA, 1% Triton™ X-100, with protease/phosphatase inhibitor (Complete, Roche)). Protein concentration was determined using Bradford reagent (Bio-Rad). Denatured protein (30 μg) was separated by SDS-PAGE (Mini-PROTEAN® TGX™ Gels 10%, Bio-Rad) and transferred to 0.45 μm nitrocellulose membranes. Membranes were blocked with 5% skim milk in TBST (1×TBS+0.1% polysorbate 20) for 1 hour, incubated with primary antibodies overnight at 4° C., washed with TBST, and incubated with horseradish peroxidase (HRP)-linked secondary antibodies for 1 hour. After TBST wash, Clarity™ Western ECL Substrate (Bio-Rad) was added. Blots were imaged and analyzed using a ChemiDoc™ MP and Image Lab Ver 6.0 (Bio-Rad). Protein levels were normalized to GAPDH (muscle) or β-actin (liver, adipose) for quantification. Primary antibodies: Cell Signaling Technology 4060 (pS473Akt, RRID:AB_2315049), 13038 (pT308Akt, RRID:AB_2629447), 4691 (pan-Akt, RRID:AB_915783), 5174 (GAPDH, RRID:AB 10622025) and Sigma A2228 (3-actin, RRID:AB_476697).
qRT-PCR. For cell samples, treated cells were lysed with RLT plus lysis buffer (Qiagen). RNA was isolated with Qiagen RNEASY® Plus columns per manufacturer instructions, then reverse-transcribed to cDNA using […]® III Reverse Transcriptase (200 U/μL, Invitrogen) per supplier protocol. qPCR experiments were either performed with TAQMAN® gene expression master mix (Invitrogen) on a StepOne™ qPCR instrument or with […]® SYBR® Green SuperMix (Quanta Biosciences) on CFX Connect™ Real-Time PCR Detection System (BioRad), with fold-change quantified by ΔΔCt. […]

[1] = HFD mice, compared to vehicle control
[2] = plasma, fold change with CL2-57 vs. vehicle in HFD mice

## CCOC(=O)c1cccc(NC(=O)c2sc(Cl)cc2S(=O)(=O)N(C)c2ccc(OCC)c(OCC)c2)c1 [CL2-57, ethyl 3-(5-chloro-3-(N-(3,4-diethoxyphenyl)-N-methylsulfamoyl)thiophene-2-carboxamido) benzoate]
HFD mice
  Attenuation of HFD increases of plasma proinflammatory lipid mediators (lysophospholipids): 20-60%
  Brown adipose or liver mass: no change
  Fall of liver mRNA encoding PPARα: 75%
  Gluconeogenic metabolites: reduced
  HFD increase of NO precursors arginine and guanidinosuccinate: reversed
  HFD-increased liver oxysterol metabolites 7-hydroxycholesterol and 4-cholesten-3-one: reversed
  Insulin secretion during the first 20 minutes of the GTT: negligible change
  Liver Abcg1 expression: unchanged
  Liver Abcg5 expression: significantly reduced
  Liver Cyp7-a1 mRNA: diminishing trend
  Liver Lpcat3 expression: significantly reduced
  Liver Scd1 expression: significantly reduced
  Liver Srebf1 mRNA: small increase
  Liver cholesterol (reduced in HFD mice): normalized to baseline
  Liver free fatty acid (FFA) concentrations reduced by: 40-90%
  Plasma FFAs decreased: 5-20%
  Plasma levels of cholesterol and oxysterol metabolites: unaffected
  Tissue mass composition by TD-NMR: shifted tissue mass from fat to lean
HFD mice treated with CL2-57, vehicle 120%
  Circulating arachidonic acid (AA) increase over diet controls: 37%
HFD mice, GTT, vs vehicle
  Blood glucose concentrations following single i.p. glucose injection: lower
HFD mice, after five weeks, 2-hour test
  Glucose tolerance test, total area under the curve reduced by: 20%
[1]
  Decrease in plasma TGs: 25%
  Decrease of liver G6PC expression: 73%
  Decrease of liver Pck1 expression: 70%
  HFD increases of the four gluconeogenic precursors, in particular glutamine and glycerol: attenuated
  Liver triglycerides (TGs) reduced by: 35%
HFD mice, initially
  Fasting/refed glucose and insulin levels: Little change
HFD mice, insulin challenge
  Adipose Akt phosphorylation: No treatment effect
  Liver Akt phosphorylation at Ser473 with insulin: did not change
  Liver Akt phosphorylation at Thr308 with insulin: increased
  Skeletal muscle insulin sensitivity versus vehicle: dramatically increased
HFD mice, liver
  Mature, nuclear form of SREBP1c protein: unchanged
  Uncleaved, endoplasmic reticulum form of SREBP1c protein: corresponding increase
HFD mice, liver and adipose
  mRNA levels of proinflammatory enzymes, cytokines and chemokines (COX2, NOS2, TNFα, IL-6, CCL2, CXCL10): substantially lowered
HFD mice, liver homogenates
  Liver ABCA1 protein: increased
  Liver Abca1 expression: increased
HFD mice, on average
  Lean tissue mass: gained
HFD mice, over six weeks, vehicle 17%
  Weight gain: 8 % of baseline
HFD mice, visceral (renal) and superficial (inguinal) fat pads
  White adipose tissue mass reduced by, proportional to body weight: > 20%
Compared to HFD alone
  Liver monoacylglycerols (MAGs) decreased: 83-97%
Markers of global inflammation and/or organ toxicity
  Creatinine, urea, and bilirubin: unaffected
[2]
  1-Arachidonoyl-GPA (20:4), HED Drug/ Chow Veh: 0.65^†
  1-Arachidonoyl-GPC (20:4n6), HED Drug/ Chow Veh: 0.73^††
  1-Arachidonoyl-GPE (20:4n6), HED Drug/ Chow Veh: 0.73^††
  1-Arachidonoyl-GPI (20:4), HED Drug/ Chow Veh: 0.75^†
  1-Lignoceroyl-GPC (24:0), HED Drug/ Chow Veh: 0.99
  1-Linolenoyl-GPC (18:3), HED Drug/ Chow Veh: 0.85
  1-Linoleoyl-GPA (18:2), HED Drug/ Chow Veh: 0.57^††
  1-Linoleoyl-GPC (18:2), HED Drug/ Chow Veh: 0.81^†
  1-Linoleoyl-GPE (18:2), HED Drug/ Chow Veh: 0.81
  1-Linoleoyl-GPG (18:2), HED Drug/ Chow Veh: 0.75^†
  1-Linoleoyl-GPI (18:2), HED Drug/ Chow Veh: 0.72
  1-Linoleoyl-GPS (18:2), HED Drug/ Chow Veh: 0.39^††
  1-Oleoy1-GPI (18:1), HED Drug/ Chow Veh: 0.58^†
  1-Oleoyl-GPC (18:1), HED Drug/ Chow Veh: 0.84
  1-Oleoyl-GPE (18:1), HED Drug/ Chow Veh: 0.79
  1-Oleoyl-GPS (18:1), HED Drug/ Chow Veh: 0.62^†
  1-Palmitoleoyl-GPC (16:1), HED Drug/ Chow Veh: 0.81
  1-Palmitoyl-GPA (16:0), HED Drug/ Chow Veh: 0.64^††
  1-Palmitoyl-GPC (16:0), HED Drug/ Chow Veh: 0.83^†
  1-Palmitoyl-GPE (16:0), HED Drug/ Chow Veh: 0.95
  1-Palmitoyl-GPI (16:0), HED Drug/ Chow Veh: 0.56^††
  1-Palmitoyl-GPS (16:0), HED Drug/ Chow Veh: 0.77
  1-Stearoyl-GPC (18:0), HED Drug/ Chow Veh: 0.94
  1-Stearoyl-GPE (18:0), HED Drug/ Chow Veh: 0.91
  1-Stearoyl-GPI (18:0), HED Drug/ Chow Veh: 0.82
  2-Palmitoleoyl-GPC (16:1), HED Drug/ Chow Veh: 1.08
  2-Palmitoyl-GPC (16:0), HED Drug/ Chow Veh: 0.81
  2-Stearoyl-GPE (18:0), HED Drug/ Chow Veh: 0.74^††
  Docosahexaenoate (DPA; 22:6n3), HED Drug/ Chow Veh: 0.76
  Docosapentaenoate (n3 DPA; 22:5n3), HED Drug/ Chow Veh: 0.60^†
  Docosapentaenoate (n6 DPA; 22:5n6), HED Drug/ Chow Veh: 0.92
  Eicosapentaenoate (EPA; 20:5n3), HED Drug/ Chow Veh: 0.60^†
  Sphingadienine, HED Drug/ Chow Veh: 0.55^††
  Sphinganine, HED Drug/ Chow Veh: 0.67^††
  Sphinganine-1-phosphate, HED Drug/ Chow Veh: 0.73
  Sphingosine, HED Drug/ Chow Veh: 0.73
  Sphingosine-1-phosphate, HED Drug/ Chow Veh: 0.93
